Data: ChEMBL document CHEMBL3351424, “Reversible ketomethylene-based inhibitors of human neutrophil proteinase 3” (J Med Chem, 2014)
The source made the active and inactive calls. The calls are words filed in the database; no cut-off is given here. Starred links: 1 amine or outer side, 2 acyl side, 3 side chain; linkers in the order of their positions; H or OH if unused. Non-standard residues stand in square brackets, D forms with d. Residues, ends and D or L forms follow the SMILES beside them. *: point of attachment. EDDnp = O=[N+]([O-])c1ccc(NCCN*)c([N+](=O)[O-])c1; X1 = CCC[C@H](N[*:1])C(=O)C[C@@H](C)C(=O)[*:2]; 2Abz = Nc1ccccc1C(=O)O

Key:
[1] = target: T1, Myeloblastin (Homo sapiens) (UniProt P24158); experiment: Inhibition of human PR3 using N-EY-FRET as substrate at 6 uM after 20 mins by fluorescence assay
T1 sequence (whole entry): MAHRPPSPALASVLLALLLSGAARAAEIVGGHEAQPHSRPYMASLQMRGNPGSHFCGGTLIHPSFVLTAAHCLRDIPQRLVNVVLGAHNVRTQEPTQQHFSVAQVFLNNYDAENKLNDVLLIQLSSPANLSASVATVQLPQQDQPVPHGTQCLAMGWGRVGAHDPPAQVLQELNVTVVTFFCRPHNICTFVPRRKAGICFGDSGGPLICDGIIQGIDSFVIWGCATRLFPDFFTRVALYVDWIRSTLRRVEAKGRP

[2] = target: T2, Neutrophil elastase (Homo sapiens) (UniProt P08246); experiment: Inhibition of human NE using MeOSuc-AAPV-AMC as substrate at 6 uM after 30 mins by fluorescence assay
T2 sequence (whole entry): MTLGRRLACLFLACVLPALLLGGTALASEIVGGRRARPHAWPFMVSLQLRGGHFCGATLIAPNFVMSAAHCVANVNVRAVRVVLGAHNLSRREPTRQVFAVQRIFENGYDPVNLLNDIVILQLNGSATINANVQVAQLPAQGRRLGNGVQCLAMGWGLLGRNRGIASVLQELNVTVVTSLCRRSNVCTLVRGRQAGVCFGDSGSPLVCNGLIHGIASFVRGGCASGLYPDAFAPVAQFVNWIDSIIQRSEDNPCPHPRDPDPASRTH

[3] = target: T3, Myeloblastin (Homo sapiens, UniProt P24158); experiment: Inhibition of human PR3 using D-DY-FRET as substrate after 30 mins by HPLC analysis
T3 sequence (P24158 whole entry): T1 sequence (whole entry)

[4] = target: T2, Neutrophil elastase (Homo sapiens); experiment: Inhibition of human NE using MeOSuc-AAPV-AMC as substrate after 30 mins by fluorescence assay

SMILES | inhibition [1] [%] | inhibition [2] [%] | IC50 [3] [µM] | inhibition [4]
O=S(=O)(F)Cc1ccccc1 [PHENYLMETHYLSULFONYLFLUORIDE] | 20 | 20 | 19.2 | –
CCC[C@H](NC(=O)[C@H](CO)NC(=O)[C@H](C)NC(=O)[C@@H](NC(=O)c1ccccc1N)C(C)C)C(=O)C[C@@H](C)C(=O)N[C@@H](CCC(=O)O)C(=O)N[C@@H](CCCNC(=N)N)C(=O)N[C@@H](CCC(N)=O)C(=O)NCCNc1ccc([N+](=O)[O-])cc1[N+](=O)[O-] (H-[2Abz]VAS[X1]ERQ-EDDnp) | – | – | – | inactive
